Laboratory results from ChEMBL document CHEMBL3044881, “Synthesis and biological evaluation of novel series of chalcone derivatives as inhibitors of cyclooxygenase and LPS-induced TNF- with potent antioxidant properties” (Med Chem Res, 2012).

Tests used:
[1] = system: Blood; test: Anti-inflammatory activity in Homo sapiens (human) whole blood assessed inhibition of LPS-induced TNF-alpha production treated 30 min before LPS challenge measured after 5 hr; type: functional, tissue-based
[2] = Antioxidant activity assessed as hydroxyl radical scavenging activity at 10 uM by spectrophotometric analysis; type: functional
[3] = system: Radical scavenging activity; test: Antioxidant activity assessed as DPPH free radical scavenging activity at 10 uM by spectrophotometric analysis; type: functional
[4] = Antioxidant activity assessed as reduction of K3Fe(CN)6 to Fe2+ at 10 uM after 10 min; type: functional; set-up: scale not given: the % may be the effect or the level left
[5] = system: Blood; test: Anti-inflammatory activity in Homo sapiens (human) whole blood assessed inhibition of LPS-induced TNF-alpha production at 1 uM treated 30 min before LPS challenge measured after 5 hr; type: functional
[6] = system: Blood; test: Anti-inflammatory activity in Homo sapiens (human) whole blood assessed inhibition of LPS-induced TNF-alpha production at 10 uM treated 30 min before LPS challenge measured after 5 hr; type: functional
[7] = molecular target: T1, Prostaglandin G/H synthase 1 (Ovis aries) (UniProt P05979); settings: at 1 mM
T1 sequence (whole entry): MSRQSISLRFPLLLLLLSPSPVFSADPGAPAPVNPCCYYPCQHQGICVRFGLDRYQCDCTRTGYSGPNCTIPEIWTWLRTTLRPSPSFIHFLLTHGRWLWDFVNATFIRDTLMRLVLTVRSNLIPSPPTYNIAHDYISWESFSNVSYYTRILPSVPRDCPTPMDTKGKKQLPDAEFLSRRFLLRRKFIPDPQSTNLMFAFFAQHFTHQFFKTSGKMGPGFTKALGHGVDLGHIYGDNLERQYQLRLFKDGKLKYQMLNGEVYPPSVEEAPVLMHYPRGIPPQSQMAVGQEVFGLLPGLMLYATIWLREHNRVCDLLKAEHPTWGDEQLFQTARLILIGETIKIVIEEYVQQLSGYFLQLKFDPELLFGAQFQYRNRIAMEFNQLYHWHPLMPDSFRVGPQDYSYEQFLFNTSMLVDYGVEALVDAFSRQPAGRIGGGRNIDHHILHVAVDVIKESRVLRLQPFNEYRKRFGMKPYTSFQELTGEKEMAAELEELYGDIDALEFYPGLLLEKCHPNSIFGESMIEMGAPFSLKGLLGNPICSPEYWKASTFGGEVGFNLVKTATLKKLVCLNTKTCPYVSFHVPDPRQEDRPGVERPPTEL
Description: Inhibition of Ovis aries (sheep) COX1 at 1 mM after 5 min by colorimetric analysis

[8] = molecular target: T2, Beta-glucuronidase (Homo sapiens) (UniProt P08236); test: Inhibition of beta-glucuronidase (unknown origin) using p-nitrophenyl-beta-D-glucopyranosiduronic acid as substrate at 1 mM after 30 min
T2 sequence (whole entry): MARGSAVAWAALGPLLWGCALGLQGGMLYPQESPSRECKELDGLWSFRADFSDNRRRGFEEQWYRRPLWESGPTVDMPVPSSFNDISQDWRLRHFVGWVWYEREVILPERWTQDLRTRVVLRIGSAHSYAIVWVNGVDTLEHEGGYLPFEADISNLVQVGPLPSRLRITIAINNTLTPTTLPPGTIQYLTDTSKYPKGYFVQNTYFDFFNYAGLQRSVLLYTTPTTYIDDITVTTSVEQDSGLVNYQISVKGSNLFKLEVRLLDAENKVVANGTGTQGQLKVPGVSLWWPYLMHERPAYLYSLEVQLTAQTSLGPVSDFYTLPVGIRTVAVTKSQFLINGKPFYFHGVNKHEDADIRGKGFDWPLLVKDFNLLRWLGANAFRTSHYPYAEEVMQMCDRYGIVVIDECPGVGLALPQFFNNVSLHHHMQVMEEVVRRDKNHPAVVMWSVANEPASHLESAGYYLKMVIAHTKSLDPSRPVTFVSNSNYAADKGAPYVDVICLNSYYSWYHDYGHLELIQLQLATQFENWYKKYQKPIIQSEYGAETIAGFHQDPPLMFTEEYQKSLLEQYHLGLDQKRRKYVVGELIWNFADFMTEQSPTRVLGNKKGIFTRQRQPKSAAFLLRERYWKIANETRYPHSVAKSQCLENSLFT

[9] = molecular target: T3, Prostaglandin G/H synthase 2 (Ovis aries) (UniProt P79208); test: Inhibition of Ovis aries (sheep) COX2 at 1 mM after 5 min by colorimetric analysis
T3 sequence (whole entry): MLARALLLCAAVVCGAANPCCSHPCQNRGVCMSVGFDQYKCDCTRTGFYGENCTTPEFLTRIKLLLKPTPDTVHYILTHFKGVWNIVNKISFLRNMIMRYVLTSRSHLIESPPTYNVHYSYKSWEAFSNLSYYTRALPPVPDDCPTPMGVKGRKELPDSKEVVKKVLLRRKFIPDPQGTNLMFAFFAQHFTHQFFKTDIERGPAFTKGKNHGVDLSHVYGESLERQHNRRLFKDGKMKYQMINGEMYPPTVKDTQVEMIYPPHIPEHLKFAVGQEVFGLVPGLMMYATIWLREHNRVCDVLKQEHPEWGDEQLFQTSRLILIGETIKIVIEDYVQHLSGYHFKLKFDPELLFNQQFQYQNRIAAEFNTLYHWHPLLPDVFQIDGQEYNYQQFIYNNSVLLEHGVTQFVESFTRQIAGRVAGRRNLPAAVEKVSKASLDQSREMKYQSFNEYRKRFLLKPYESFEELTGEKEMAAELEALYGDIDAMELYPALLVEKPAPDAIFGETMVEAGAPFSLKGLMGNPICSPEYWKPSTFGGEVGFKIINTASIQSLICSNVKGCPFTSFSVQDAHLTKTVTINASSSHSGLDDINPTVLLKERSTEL

[10] = molecular target: Trypsin (Homo sapiens) (UniProt P07477+P07478+P35030); test: Inhibition of trypsin (unknown origin) assessed as hydrolysis of bovine serum albumin at 1 mM after 20 min; type: protein assay
[11] = Homo sapiens, Blood, read-out: IC50

Compound	IC50 [1, 11] [µM]	Activity [2] [%]	Activity [3] [%]	Activity [4] [%]	inhibition at 1 µM [5] [%]	inhibition at 10 µM [6] [%]	inhibition [7] [%]	inhibition [8] [%]	inhibition [9] [%]	inhibition [10] [%]	IC50 [1]
COc1cc(OC)c(C(=O)/C=C/c2cccc(Br)c2)c(O)c1Br	8.2	38.2	24.1	19.6	13	57					
COc1ccc(OC)c(/C=C/C(=O)c2c(OC)cc(OC)c(Br)c2O)c1	10.9	31.6	23	22.9	22	57					
COc1cc(OC)c(C(=O)/C=C/c2ccc(Cl)c([N+](=O)[O-])c2)c(O)c1Br	14.2		14.3	26	34	49					
COc1ccc(/C=C/C(=O)c2c(OC)cc(OC)c(Br)c2O)c(OC)c1	10.2	28.8	20.2	18.4	21	59	52.4	41.3	57.8	39.5	
COc1cc(OC)c(C(=O)/C=C/c2cccc(F)c2)c(O)c1Br	1.2		12	12.2	36	63					
COc1cc(OC)c(C(=O)/C=C/c2ccc(Cl)cc2Cl)c(O)c1Br	8.9	30.2	17.3	17.4	46	53					
COc1cc(OC)c(C(=O)/C=C/c2ccccc2C(F)(F)F)c(O)c1Br	3.2	47	13.7	10	27	52					
COc1cc(OC)c(C(=O)/C=C/c2cccnc2)c(O)c1Br	0.1	44.1	21.1	16.6	45	85					
O=C(O)c1ccccc1O								26.5			
COc1cc(OC)c(C(=O)/C=C/c2ccccc2Cl)c(O)c1Br	15.9	32.3	15.8	14.3	40	72					
COc1ccc(/C=C/C(=O)c2c(OC)cc(OC)c(Br)c2O)cc1	7.4	49.4	38.4	34.3	38	53					
C[C@H]1C[C@H]2[C@@H]3CCC4=CC(=O)C=C[C@]4(C)[C@@]3(F)[C@@H](O)C[C@]2(C)[C@@]1(O)C(=O)CO [BETAMETHASONE]	1				72	87					
CC(=O)Oc1ccccc1C(=O)O									38.5		
COc1cc(OC)c(C(=O)/C=C/c2cccc(C#N)c2)c(O)c1Br	0.7	25.6	27.4	17.3	26	57					
COc1cc(/C=C/C(=O)c2c(OC)cc(OC)c(Br)c2O)cc(OC)c1	11.4	23.5		18.4	25	37					
O=C(O)c1cc(O)c(O)c(O)c1			91								
COc1cc(OC)c(C(=O)/C=C/c2ccc(Cl)cc2)c(O)c1Br	1.4	38.2	18.4	15.7	43	51					
COc1cc(OC)c(C(=O)/C=C/c2cc[nH]c2)c(O)c1Br	0.6		26.7	26	42	78					
COc1cc(OC)c(C(=O)/C=C/c2cccc([N+](=O)[O-])c2)c(O)c1Br	10.1	18.8	23.7	26.2	31	50					
COc1cc(OC)c(C(=O)/C=C/c2ccccc2F)c(O)c1Br		16.8	29.9	29.7	24	38					Not Active
O=C1O[C@H]([C@@H](O)CO)C(O)=C1O		41.2		76.6							
